Reference: patent publication US12226431B2 (priority 2021, dated 2025)

Columns and labels:
[1] = preservative in nasal sprays and nebulization; cited from earlier work
[2] = system: SARS-COV-2; settings: two weeks of receiving the quercetin treatment; cited from earlier work
[3] = system: influenza virus; settings: cited from earlier work
[4] = system: vaccinia virus; settings: depletion of plasma membrane cholesterol in host cells; cited from earlier work
[5] = system: cell plasma membrane; experiment: Cells exposed to increasing concentration of M-βCD to deplete plasma membrane cholesterol: phospholipid uptake and membrane fusion proteins; type: cell-based
[6] = system: pseudorabies virus; settings: cited from earlier work
[7] = increasing concentration of M-βCD, cholesterol depletion

In the case of `OCc1ccccc1` [phenylcarbinol], the “adverse / toxic effects” value [1] is given as “toxic effects”.

In the case of `O=c1c(O)c(-c2ccc(O)c(O)c2)oc2cc(O)cc(O)c12` [quercetin], the “SARS-COV-2 infected patients cleared of the virus” value [2] is listed as 98% and the “therapeutic effects against influenza virus” value [3] is listed as “therapeutic effects”.

In the case of Benzalkonium chloride, the “adverse / toxic effects” value [1] is listed as “sino-nasal mucosal injury, nasal squamous metaplasia, ciliary dysmotility, genotoxicity, and other adverse effects”.

For methyl beta cyclodextrin [M-βCD], the “entry of vaccinia virus into cells” value [4] is given as “significantly reduces”, the “uptake of phosphatidyl serine by the cell plasma membrane” value [5, 7] is given as “loss in the uptake” and the “uptake of phosphatidylethanolamine by the cell plasma membrane” value [5, 7] is given as “remain unchanged”. The “membrane fusion proteins syntaxin and SNAP25 at the plasma membrane” value ([5]; loss of cholesterol from the cell plasma membrane) was “depletion of membrane fusion proteins” and the “entry of pseudorabies virus into cells” value [6] was “significantly reduces”.
